Assay results from patent US20240246941A1, “SUBSTITUTED 4-(3-AMINOPROP-1-YL)AMINOQUINOLINE ANALOGS AS MODULATORS OF MELANOMA-ASSOCIATED ANTIGEN 11 UBIQUITIN LIGASE” (ST. JUDE CHILDREN'S RESEARCH HOSPITAL, INC., priority 2020, published 2024).

Molecular target: MAGE-A11:PCF11 (Homo sapiens (Human), UniProt P43364)
Assay: TR-FRET single point screening at 15 μM
Assay type: binding
Set-up: unit not given here
In short: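 Single-point screen at 15 μM (0.25% DMSO) measuring disruption of GST-MAGEA11 (5 nM) binding to FAM-PCF11_4 peptide (200 nM) detected by Tb-anti-GST (5 nM). Buffer 50 mM Tris pH 7.5, 20 mM MgCl2, 0.1 mg/ml BSA, 1 mM DTT; 90 min at ~25 °C; 520/490 nm ratio converted to % inhibition versus controls.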

[1] = single point TR-FRET screening of quinoline compounds against MAGE-A11:PCF11, 15 μM
[2] = single point TR-FRET screening at 15 μM against MAGE-A11:PCF11

MAGE-A11:PCF11, sequence (P43364 218-429): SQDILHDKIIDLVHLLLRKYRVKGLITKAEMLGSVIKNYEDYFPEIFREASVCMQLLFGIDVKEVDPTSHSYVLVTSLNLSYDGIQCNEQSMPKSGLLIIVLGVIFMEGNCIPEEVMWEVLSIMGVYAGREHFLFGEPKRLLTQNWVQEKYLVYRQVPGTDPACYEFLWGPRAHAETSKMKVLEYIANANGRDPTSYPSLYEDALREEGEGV

SMILES	TR-FRET signal [1]	TR-FRET signal [2]
CSC(C)CCNCCCNc1ccnc2cc(C(F)(F)F)ccc12 (centres unmarked) [SJ000361125]	24.46	
Clc1ccc2c(NCCCN(Cc3ccccc3)Cc3ccccc3)ccnc2c1 [SJ000361166]	14.76	
Oc1ccccc1CN(CCCNc1ccnc2cc(Cl)ccc12)Cc1ccccc1 [SJ000361167]	19.27	
FC(F)(F)c1ccccc1CN(CCCNc1ccnc2cc(Cl)ccc12)Cc1ccccc1 [SJ000361168]	2.509	
Cc1cc(C)c(CN(CCCNc2ccnc3cc(Cl)ccc23)Cc2ccccc2)c(C)c1 [SJ000361169]	31.19	
Clc1ccc2c(NCCCN(Cc3ccccc3)Cc3ccoc3)ccnc2c1 [SJ000361170]	12.84	
Clc1ccc2c(NCCCN(Cc3ccccc3)CC3CCCCC3)ccnc2c1 [SJ000361171]	28.21	
CCC(CC)CN(CCCNc1ccnc2cc(Cl)ccc12)Cc1ccccc1 [SJ000361172]	22.91	
CCCCCN(CCCNc1ccnc2cc(Cl)ccc12)Cc1ccccc1 [SJ000361173]	26.56	
Fc1ccc(CN(CCCNc2ccnc3cc(Cl)ccc23)Cc2ccccc2)cc1F [SJ000361174]	27.55	
Fc1ccccc1CN(CCCNc1ccnc2cc(Cl)ccc12)Cc1ccccc1 [SJ000361175]	0.9627	
Fc1cccc(CN(CCCNc2ccnc3cc(Cl)ccc23)Cc2ccccc2)c1 [SJ000361176]	20.36	
O=[N+]([O-])c1ccccc1CN(CCCNc1ccnc2cc(Cl)ccc12)Cc1ccccc1 [SJ000361177]	16.42	
O=[N+]([O-])c1cccc(CN(CCCNc2ccnc3cc(Cl)ccc23)Cc2ccccc2)c1 [SJ000361178]	17.02	
O=[N+]([O-])c1ccc(CN(CCCNc2ccnc3cc(Cl)ccc23)Cc2ccccc2)cc1 [SJ000361179]	20.2	
O=C(O)c1ccccc1CN(CCCNc1ccnc2cc(Cl)ccc12)Cc1ccccc1 [SJ000361180]	9.598	
Clc1ccc2c(NCCCN(Cc3ccccc3)Cc3cccc4ccccc34)ccnc2c1 [SJ000361181]	26.23	
Clc1ccc2c(NCCCN(Cc3ccccc3)Cc3ccc4ccccc4c3)ccnc2c1 [SJ000361182]	22.05	
Cc1cccc(CN(CCCNc2ccnc3cc(Cl)ccc23)Cc2ccccc2)c1 [SJ000361183]	6.02	
Clc1ccc(CN(CCCNc2ccnc3cc(Cl)ccc23)Cc2ccccc2)c(Cl)c1 [SJ000361184]	25.5	

SMILES	TR-FRET signal [1]	TR-FRET signal [2]
Clc1ccc2c(NCCCN(CCCc3ccccc3)Cc3ccccc3)ccnc2c1 [SJ000361185]	6.074	
CCC(C)CN(CCCNc1ccnc2cc(Cl)ccc12)Cc1ccccc1 (centres unmarked) [SJ000361186]	29.6	
Cc1ccc(C)c(CN(CCCNc2ccnc3cc(Cl)ccc23)Cc2ccccc2)c1 [SJ000361187]	20.22	
COc1cccc(CN(CCCNc2ccnc3cc(Cl)ccc23)Cc2ccccc2)c1 [SJ000361188]	−9.05	
CCCCCCN(CCCNc1ccnc2cc(Cl)ccc12)Cc1ccccc1 [SJ000361189]	−40.75	
Clc1ccc2c(NCCCCN(Cc3ccccc3)Cc3ccncc3)ccnc2c1 [SJ000361190]		−9.945
Cc1ccsc1CN(CCCCNc1ccnc2cc(Cl)ccc12)Cc1ccccc1 [SJ000361191]		23.44
FC(F)(F)c1ccccc1CN(CCCCNc1ccnc2cc(Cl)ccc12)Cc1ccccc1 [SJ000361192]		27.82
Cc1cc(C)c(CN(CCCCNc2ccnc3cc(Cl)ccc23)Cc2ccccc2)c(C)c1 [SJ000361193]		26.03
Clc1ccc2c(NCCCCN(Cc3ccccc3)CC3CCCCC3)ccnc2c1 [SJ000361194]		41.93
CCC(CC)CN(CCCCNc1ccnc2cc(Cl)ccc12)Cc1ccccc1 [SJ000361195]		25.54
CCCCCN(CCCCNc1ccnc2cc(Cl)ccc12)Cc1ccccc1 [SJ000361196]		19.1
Fc1ccc(CN(CCCCNc2ccnc3cc(Cl)ccc23)Cc2ccccc2)cc1F [SJ000361197]		26.09
Fc1ccccc1CN(CCCCNc1ccnc2cc(Cl)ccc12)Cc1ccccc1 [SJ000361198]		20.78
Fc1cccc(CN(CCCCNc2ccnc3cc(Cl)ccc23)Cc2ccccc2)c1 [SJ000361199]		28.34
O=[N+]([O-])c1ccccc1CN(CCCCNc1ccnc2cc(Cl)ccc12)Cc1ccccc1 [SJ000361200]		17.21
O=[N+]([O-])c1cccc(CN(CCCCNc2ccnc3cc(Cl)ccc23)Cc2ccccc2)c1 [SJ000361201]		24.37
O=[N+]([O-])c1ccc(CN(CCCCNc2ccnc3cc(Cl)ccc23)Cc2ccccc2)cc1 [SJ000361202]		15.25
O=C(O)c1ccccc1CN(CCCCNc1ccnc2cc(Cl)ccc12)Cc1ccccc1 [SJ000361203]		4.099
Clc1ccc2c(NCCCCN(Cc3ccccc3)Cc3cccc4ccccc34)ccnc2c1 [SJ000361204]		26.49

SMILES	TR-FRET signal [1]	TR-FRET signal [2]
Clc1ccc2c(NCCCCN(Cc3ccccc3)Cc3ccc4ccccc4c3)ccnc2c1 [SJ000361205]		24.64
Cc1cccc(CN(CCCCNc2ccnc3cc(Cl)ccc23)Cc2ccccc2)c1 [SJ000361206]		29.54
Clc1ccc(CN(CCCCNc2ccnc3cc(Cl)ccc23)Cc2ccccc2)c(Cl)c1 [SJ000361207]		35.43
CCC(C)CN(CCCCNc1ccnc2cc(Cl)ccc12)Cc1ccccc1 (centres unmarked) [SJ000361208]		35.37
Cc1ccc(C)c(CN(CCCCNc2ccnc3cc(Cl)ccc23)Cc2ccccc2)c1 [SJ000361209]		32.65
COc1cccc(CN(CCCCNc2ccnc3cc(Cl)ccc23)Cc2ccccc2)c1 [SJ000361210]		11.72
Clc1ccc2c(NCCCCN(CCc3ccccc3)Cc3ccccc3)ccnc2c1 [SJ000361211]		23.38
CCCCCCN(CCCCNc1ccnc2cc(Cl)ccc12)Cc1ccccc1 [SJ000361212]		23.58
CCCN(CCC)CCCNc1ccnc2cc(C(F)(F)F)ccc12 [SJ000361250]	15.68	
CCCN(CCCNc1ccnc2cc(C(F)(F)F)ccc12)Cc1ccncc1 [SJ000361251]	17.49	
CCCN(CCCNc1ccnc2cc(C(F)(F)F)ccc12)Cc1ccccn1 [SJ000361252]	15.16	
CCCN(CCCNc1ccnc2cc(C(F)(F)F)ccc12)Cc1cccs1 [SJ000361253]	19.53	
CCCN(CCCNc1ccnc2cc(C(F)(F)F)ccc12)Cc1ccsc1 [SJ000361254]	28.88	
CCCN(CCCNc1ccnc2cc(C(F)(F)F)ccc12)Cc1ccc[nH]1 [SJ000361255]	30.66	
CCCN(CCCNc1ccnc2cc(C(F)(F)F)ccc12)Cc1ccccc1 [SJ000361256]	28.82	
CCCN(CCCNc1ccnc2cc(C(F)(F)F)ccc12)Cc1ccccc1O [SJ000361257]	26.5	
CCCN(CCCNc1ccnc2cc(C(F)(F)F)ccc12)Cc1ccc(C)s1 [SJ000361258]	19.08	
CCCN(CCCNc1ccnc2cc(C(F)(F)F)ccc12)Cc1ccccc1C(F)(F)F [SJ000361259]	4.988	
CCCN(CCCNc1ccnc2cc(C(F)(F)F)ccc12)Cc1cccc(OC)c1O [SJ000361260]	15.49	
